In US20250042875A1, “PESTICIDALLY ACTIVE PYRIDAZINONE COMPOUNDS” (SYNGENTA CROP PROTECTION AG, priority 2021, published 2025):

How the values were obtained:
Type in all cases: in vivo
Chilo suppressalis = test: Activity against Chilo suppressalis (striped rice stemborer), artificial diet, L2 larvae; settings: 144 h, application rate 200 ppm, 6 days after infestation, read-out: control in at least one of the three categories (mortality, anti-feedant effect, or growth inhibition)
Experimental: Example B1: Activity Against Chilo suppressalis (Striped Rice Stemborer)
24-well microtiter plates with artificial diet were treated with aqueous test solutions prepared from 10′000 ppm DMSO stock solutions by pipetting. After drying, the plates were infested with L2 larvae (6-8 per well). The samples were assessed for mortality, anti-feeding effect, and growth inhibition in comparison to untreated samples 6 days after infestation. Control of Chilo suppressalis by a test sample is given when at least one of the categories mortality, anti-feedant effect, and growth inhibition is higher than the untreated sample.

Diabrotica balteata = test: Activity against Diabrotica balteata (corn root worm), maize sprouts, L2 larvae; settings: 96 h, application rate 200 ppm, 4 days after infestation, read-out: control in at least one of the two categories (mortality or growth inhibition)
Experimental: Example B2: Activity Against Diabrotica Balteata (Corn Root Worm)
Maize sprouts placed onto an agar layer in 24-well microtiter plates were treated with aqueous test solutions prepared from 10′000 ppm DMSO stock solutions by spraying. After drying, the plates were infested with L2 larvae (6 to 10 per well). The samples were assessed for mortality and growth inhibition in comparison to untreated samples 4 days after infestation.

Myzus persicae = test: Activity against Myzus persicae (green peach aphid), intrinsic activity; settings: 120 h, test rate 12 ppm, 5 days after infestation
From the text: Example B6: Activity Against Myzus persicae (Green Peach Aphid). Intrinsic Activity
Test compounds prepared from 10′000 ppm DMSO stock solutions were applied by pipette into 24-well microtiter plates and mixed with sucrose solution. The plates were closed with a stretched Parafilm. A plastic stencil with 24 holes was placed onto the plate and infested pea seedlings were placed directly on the Parafilm. The infested plate was closed with a gel blotting paper and another plastic stencil and then turned upside down. The samples were assessed for mortality 5 days after infestation.

Plutella xylostella = test: Activity against Plutella xylostella (diamond back moth), artificial diet, eggs; settings: 192 h, application rate 200 ppm, 8 days after infestation, read-out: control in at least one of the two categories (mortality or growth inhibition)
Experimental: Example B7: Activity Against Plutella xylostella (Diamond Back Moth)
24-well microtiter plates with artificial diet were treated with aqueous test solutions prepared from 10′000 ppm DMSO stock solutions by pipetting. After drying, Plutella eggs were pipetted through a plastic stencil onto a gel blotting paper and the plate was closed with it. The samples were assessed for mortality and growth inhibition in comparison to untreated samples 8 days after infestation.

Spodoptera littoralis = test: Activity against Spodoptera littoralis (Egyptian cotton leaf worm), cotton leaf discs, L1 larvae; settings: foliar, 72 h, application rate 200 ppm, 3 days after infestation, read-out: control in at least one of the three categories (mortality, anti-feedant effect, or growth inhibition)
Experimental: Example B8: Activity Against Spodoptera littoralis (Egyptian Cotton Leaf Worm)
Cotton leaf discs were placed onto agar in 24-well microtiter plates and sprayed with aqueous test solutions prepared from 10′000 ppm DMSO stock solutions. After drying the leaf discs were infested with five L1 larvae. The samples were assessed for mortality, anti-feeding effect, and growth inhibition in comparison to untreated samples 3 days after infestation. Control of Spodoptera littoralis by a test sample is given when at least one of the categories mortality, anti-feedant effect, and growth inhibition is higher than the untreated sample.

Euschistus heros = test: Activity against Euschistus heros (neotropical brown stink bug), soybean leaves, N2 nymphs; settings: 120 h, application rate 200 ppm, 5 days after infestation, read-out: effect in at least one of the two categories (mortality or growth inhibition)
Experimental: Example B3: Activity Against Euschistus heros (Neotropical Brown Stink Bug)
Soybean leaves on agar in 24-well microtiter plates were sprayed with aqueous test solutions prepared from 10′000 ppm DMSO stock solutions. After drying the leaves were infested with N2 nymphs. The samples were assessed for mortality and growth inhibition in comparison to untreated samples 5 days after infestation.

CC(NC(=O)c1cc(C(F)(F)F)cc(C(F)(F)F)c1)c1nccnc1-c1ccc(=O)n(C)n1 (stereo not shown) [P3, N-[1-[3-(1-methyl-6-oxo-pyridazin-3-yl)pyrazin-2-yl]ethyl]-3,5-bis(trifluoromethyl)benzamide]
≥ 80%: percent control (mortality, anti-feedant effect or growth inhibition) at 200 ppm (Chilo suppressalis) | percent control (mortality or growth inhibition) at 200 ppm (Diabrotica balteata) | mortality at 12 ppm (Myzus persicae) | percent control (mortality or growth inhibition) at 200 ppm (Plutella xylostella) | percent control (mortality, anti-feedant effect or growth inhibition) at 200 ppm (Spodoptera littoralis)

C[C@H](NC(=O)c1cc(Cl)cc(C(F)(F)F)c1)c1ncnn1-c1ccc(=O)n(C)n1 [P4, 3-chloro-N-[(1S)-1-[2-(1-methyl-6-oxo-pyridazin-3-yl)-1,2,4-triazol-3-yl]ethyl]-5-(trifluoromethyl) benzamide]
≥ 80%: percent control (mortality, anti-feedant effect or growth inhibition) at 200 ppm (Chilo suppressalis) | percent control (mortality or growth inhibition) at 200 ppm (Diabrotica balteata) | percent effect (mortality or growth inhibition) at 200 ppm (Euschistus heros) | mortality at 12 ppm (Myzus persicae) | percent control (mortality or growth inhibition) at 200 ppm (Plutella xylostella) | percent control (mortality, anti-feedant effect or growth inhibition) at 200 ppm (Spodoptera littoralis)

CC(NC(=O)c1cc(Cl)cc(I)c1)c1nccnc1-c1ccc(=O)n(C)n1 (stereo not shown) [P12, 3-chloro-5-iodo-N-[1-[3-(1-methyl-6-oxo-pyridazin-3-yl)pyrazin-2-yl]ethyl]benzamide]
≥ 80%: percent control (mortality, anti-feedant effect or growth inhibition) at 200 ppm (Chilo suppressalis) | percent control (mortality or growth inhibition) at 200 ppm (Diabrotica balteata) | mortality at 12 ppm (Myzus persicae) | percent control (mortality or growth inhibition) at 200 ppm (Plutella xylostella) | percent control (mortality, anti-feedant effect or growth inhibition) at 200 ppm (Spodoptera littoralis)

CC(NC(=O)c1cc(Br)cc(Br)c1)c1nccnc1-c1ccc(=O)n(C)n1 (stereo not shown) [P13, 3,5-dibromo-N-[1-[3-(1-methyl-6-oxo-pyridazin-3-yl)pyrazin-2-yl]ethyl]benzamide]
≥ 80%: percent control (mortality, anti-feedant effect or growth inhibition) at 200 ppm (Chilo suppressalis) | percent control (mortality or growth inhibition) at 200 ppm (Diabrotica balteata) | mortality at 12 ppm (Myzus persicae) | percent control (mortality or growth inhibition) at 200 ppm (Plutella xylostella) | percent control (mortality, anti-feedant effect or growth inhibition) at 200 ppm (Spodoptera littoralis)

CC(NC(=O)c1cc(Br)cc(I)c1)c1nccnc1-c1ccc(=O)n(C)n1 (stereo not shown) [P15, 3-bromo-5-iodo-N-[1-[3-(1-methyl-6-oxo-pyridazin-3-yl)pyrazin-2-yl]ethyl]benzamide]
≥ 80%: percent control (mortality, anti-feedant effect or growth inhibition) at 200 ppm (Chilo suppressalis) | mortality at 12 ppm (Myzus persicae) | percent control (mortality or growth inhibition) at 200 ppm (Plutella xylostella) | percent control (mortality, anti-feedant effect or growth inhibition) at 200 ppm (Spodoptera littoralis)

C[C@H](NC(=O)c1cc(Cl)cc(S(=O)(=O)C(F)(F)F)c1)c1ncnn1C1=NN(C)C(=O)CC1 [P21, 3-chloro-N-[(1S)-1-[2-(1-methyl-6-oxo-4,5-dihydropyridazin-3-yl)-1,2,4-triazol-3-yl]ethyl]-5-(trifluoromethylsulfonyl) benzamide]
≥ 80%: percent control (mortality, anti-feedant effect or growth inhibition) at 200 ppm (Chilo suppressalis) | percent control (mortality or growth inhibition) at 200 ppm (Diabrotica balteata) | percent effect (mortality or growth inhibition) at 200 ppm (Euschistus heros) | mortality at 12 ppm (Myzus persicae) | percent control (mortality or growth inhibition) at 200 ppm (Plutella xylostella) | percent control (mortality, anti-feedant effect or growth inhibition) at 200 ppm (Spodoptera littoralis)

C[C@H](NC(=O)c1cc(C(F)(F)F)cc(C2(C#N)CC2)c1)c1ncnn1-c1ccc(=O)n(C)n1 [P25, 3-(1-cyanocyclopropyl)-N-[(1S)-1-[2-(1-methyl-6-oxo-pyridazin-3-yl)-1,2,4-triazol-3-yl]ethyl]-5-(trifluoromethyl)benzamide]
≥ 80%: percent control (mortality, anti-feedant effect or growth inhibition) at 200 ppm (Chilo suppressalis) | percent control (mortality or growth inhibition) at 200 ppm (Diabrotica balteata) | percent effect (mortality or growth inhibition) at 200 ppm (Euschistus heros) | mortality at 12 ppm (Myzus persicae) | percent control (mortality or growth inhibition) at 200 ppm (Plutella xylostella) | percent control (mortality, anti-feedant effect or growth inhibition) at 200 ppm (Spodoptera littoralis)

CC(NC(=O)c1cc(Cl)cc(S(=O)(=O)C(F)(F)F)c1)c1nccnc1-c1ccc(=O)n(C)n1 (stereo not shown) [P31, 3-chloro-N-[1-[3-(1-methyl-6-oxo-pyridazin-3-yl)pyrazin-2-yl]ethyl]-5-(trifluoromethylsulfonyl) benzamide]
≥ 80%: percent control (mortality, anti-feedant effect or growth inhibition) at 200 ppm (Chilo suppressalis) | mortality at 12 ppm (Myzus persicae) | percent control (mortality or growth inhibition) at 200 ppm (Plutella xylostella) | percent control (mortality, anti-feedant effect or growth inhibition) at 200 ppm (Spodoptera littoralis)

C[C@H](NC(=O)c1cc(Cl)cc(OC(F)F)c1)c1ncnn1-c1ccc(=O)n(C)n1 [P37, 3-chloro-5-(difluoromethoxy)-N-[(1S)-1-[2-(1-methyl-6-oxo-pyridazin-3-yl)-1,2,4-triazol-3-yl]ethyl]benzamide]
≥ 80%: percent control (mortality or growth inhibition) at 200 ppm (Diabrotica balteata) | percent effect (mortality or growth inhibition) at 200 ppm (Euschistus heros) | mortality at 12 ppm (Myzus persicae) | percent control (mortality or growth inhibition) at 200 ppm (Plutella xylostella)

CC(NC(=O)c1cc(Br)nc(C2(C#N)CC2)c1)c1nccnc1-c1ccc(=O)n(C)n1 (stereo not shown) [P38, 2-bromo-6-(1-cyanocyclopropyl)-N-[1-[3-(1-methyl-6-oxo-pyridazin-3-yl)pyrazin-2-yl]ethyl]pyridine-4-carboxamide]
≥ 80%: percent control (mortality, anti-feedant effect or growth inhibition) at 200 ppm (Chilo suppressalis) | percent control (mortality or growth inhibition) at 200 ppm (Plutella xylostella) | percent control (mortality, anti-feedant effect or growth inhibition) at 200 ppm (Spodoptera littoralis)

C[C@H](NC(=O)c1cc(Br)nc(C2(C#N)CC2)c1)c1ncnn1-c1ccc(=O)n(C)n1 [P39, 2-bromo-6-(1-cyanocyclopropyl)-N-[(1S)-1-[2-(1-methyl-6-oxo-pyridazin-3-yl)-1,2,4-triazol-3-yl]ethyl]pyridine-4-carboxamide]
≥ 80%: percent effect (mortality or growth inhibition) at 200 ppm (Euschistus heros)

CC(NC(=O)c1cc(Cl)cc(C(F)F)c1)c1nccnc1-c1ccc(=O)n(C)n1 (stereo not shown) [P41, 3-chloro-5-(difluoromethyl)-N-[1-[3-(1-methyl-6-oxo-pyridazin-3-yl)pyrazin-2-yl]ethyl]benzamide]
≥ 80%: percent control (mortality, anti-feedant effect or growth inhibition) at 200 ppm (Chilo suppressalis) | percent control (mortality or growth inhibition) at 200 ppm (Diabrotica balteata) | mortality at 12 ppm (Myzus persicae) | percent control (mortality or growth inhibition) at 200 ppm (Plutella xylostella) | percent control (mortality, anti-feedant effect or growth inhibition) at 200 ppm (Spodoptera littoralis)

C[C@H](NC(=O)c1cc(Cl)cc(C(F)F)c1)c1ncnn1-c1ccc(=O)n(C)n1 [P42, 3-chloro-5-(difluoromethyl)-N-[(1S)-1-[2-(1-methyl-6-oxo-pyridazin-3-yl)-1,2,4-triazol-3-yl]ethyl]benzamide]
≥ 80%: percent control (mortality or growth inhibition) at 200 ppm (Diabrotica balteata) | percent effect (mortality or growth inhibition) at 200 ppm (Euschistus heros) | mortality at 12 ppm (Myzus persicae) | percent control (mortality or growth inhibition) at 200 ppm (Plutella xylostella) | percent control (mortality, anti-feedant effect or growth inhibition) at 200 ppm (Spodoptera littoralis)

CC(NC(=O)c1cc(Br)cc(C(F)(F)F)c1)c1nccnc1-c1cn(C)c(=O)cn1 (stereo not shown) [P48, 3-bromo-N-[1-[3-(4-methyl-5-oxo-pyrazin-2-yl)pyrazin-2-yl]ethyl]-5-(trifluoromethyl)benzamide]
≥ 80%: percent control (mortality, anti-feedant effect or growth inhibition) at 200 ppm (Chilo suppressalis) | percent control (mortality or growth inhibition) at 200 ppm (Diabrotica balteata) | mortality at 12 ppm (Myzus persicae) | percent control (mortality or growth inhibition) at 200 ppm (Plutella xylostella) | percent control (mortality, anti-feedant effect or growth inhibition) at 200 ppm (Spodoptera littoralis)
